Experimental data reported in patent US8362017B2, “C-kit modulators and methods of use” (Exelixis, Inc., priority 2003, dated 2013).

These compounds were tested against c-Kit kinase (Homo sapiens, UniProt P10721) (assay: c-Kit biochemical activity assay (AlphaScreen)). Conditions: biotinylated poly(Glu, Tyr) substrate, 1 hr at ambient temperature.
Description: Kinase activity and compound inhibition are investigated using one or more of the three assay formats described below. The ATP concentrations for each assay are selected to be close to the Michaelis-Menten constant (KM) for each individual kinase. Dose-response experiments are performed at 10 different inhibitor concentrations in a 384-well plate format. The data are fitted to four-parameter equation (2) below; where Y is the observed signal, X is the inhibitor concentration, Min is the background signal in the absence of enzyme (0% enzyme activity), Max is the signal in the absence of inhibitor (100% enzyme activity), IC50 is the inhibitor concentration at 50% enzyme inhibition and H represents the empirical Hill's slope to measure the cooperativity. Typically H is close to unity. Y=Min+(Max−Min)/(1+(X/IC50)^H) Equation (2) c-Kit Assay
c-Kit biochemical activity was assessed using AlphaScreen™ (Perldn Elmer) technology, described above. Test compounds, ATP, biotinylated poly(Glu, Tyr) and c-Kit kinase were combined in a volume of 20 μL in a 384-well white, medium binding microtiter plate (Greiner). Reaction mixtures were incubated for 1 hr at ambient temperature. Reactions were quenched by addition of 10 μL of 15-30 mg/mL AlphaScreen bead suspension containing 75 mM Hepes, pH 7.4, 300 mM NaCl, 120 mM EDTA, 0.3% BSA and 0.03% Tween-20. After 16 hr incubation at ambient temperature plates were read using an AlphaQuest reader (Perkin Elmer).

Sequence of c-Kit kinase (P10721 26-976): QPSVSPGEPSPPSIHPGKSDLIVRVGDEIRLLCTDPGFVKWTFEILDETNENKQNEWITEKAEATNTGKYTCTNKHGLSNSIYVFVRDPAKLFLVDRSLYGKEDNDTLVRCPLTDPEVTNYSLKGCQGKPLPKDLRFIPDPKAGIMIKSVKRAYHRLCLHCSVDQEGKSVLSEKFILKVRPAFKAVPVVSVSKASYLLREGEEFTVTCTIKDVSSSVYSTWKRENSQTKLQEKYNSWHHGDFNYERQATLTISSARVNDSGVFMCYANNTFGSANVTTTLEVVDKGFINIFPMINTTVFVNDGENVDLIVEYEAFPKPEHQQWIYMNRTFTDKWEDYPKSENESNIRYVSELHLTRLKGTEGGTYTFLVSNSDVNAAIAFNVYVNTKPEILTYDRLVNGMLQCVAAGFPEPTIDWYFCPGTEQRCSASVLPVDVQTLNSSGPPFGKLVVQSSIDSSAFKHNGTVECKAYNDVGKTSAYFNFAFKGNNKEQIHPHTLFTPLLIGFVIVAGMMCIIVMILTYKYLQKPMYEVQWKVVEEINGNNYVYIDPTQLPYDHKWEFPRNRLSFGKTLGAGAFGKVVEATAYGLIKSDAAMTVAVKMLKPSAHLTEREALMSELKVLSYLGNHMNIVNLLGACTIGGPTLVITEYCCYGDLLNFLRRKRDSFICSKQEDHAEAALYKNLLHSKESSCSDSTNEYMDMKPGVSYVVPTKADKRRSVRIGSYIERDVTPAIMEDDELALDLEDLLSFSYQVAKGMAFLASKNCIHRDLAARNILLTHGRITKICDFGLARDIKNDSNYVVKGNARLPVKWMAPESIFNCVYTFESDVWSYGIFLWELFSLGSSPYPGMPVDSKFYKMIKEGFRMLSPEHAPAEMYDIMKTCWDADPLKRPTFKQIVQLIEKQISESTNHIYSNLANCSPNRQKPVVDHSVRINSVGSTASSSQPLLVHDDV

Compound	IC50
O=C(NCc1ccc(-c2cncc3ccccc23)cc1)Nc1ccc(Cl)c(C(F)(F)F)c1 [Example 264, N-[4-chloro-3-(trifluoromethyl)phenyl]-N′-[(4-isoquinolin-4-ylphenyl)methyl]urea]	0.5 to 5 µM
O=C(Nc1ccc(Cl)c(C(F)(F)F)c1)OCc1cccc(-c2cn[nH]c2)c1 [Example 266, [3-(1H-pyrazol-4-yl)phenyl]methyl [4-chloro-3-(trifluoromethyl)phenyl]carbamate]	< 0.05 µM
O=C(Nc1ccc(Cl)c(C(F)(F)F)c1)OCc1ccc(-c2cn[nH]c2)cc1 [Example 267, [4-(1H-pyrazol-4-yl)phenyl]methyl [4-chloro-3-(trifluoromethyl)phenyl]carbamate]	0.5 to 5 µM

The next lines start with the values.

IC50	Compound
0.5 to 5 µM	O=C(Nc1ccc(Cl)c(C(F)(F)F)c1)OCc1cccc(-c2cccnc2)n1 [Example 261, 2,3′-bipyridin-6-ylmethyl [4-chloro-3-(trifluoromethyl)phenyl]carbamate]
0.5 to 5 µM	O=C(Nc1ccc(Cl)c(C(F)(F)F)c1)OCc1cccc(-c2cncnc2)n1 [Example 262, (6-pyrimidin-5-ylpyridin-2-yl)methyl [4-chloro-3-(trifluoromethyl)phenyl]carbamate]
0.5 to 5 µM	O=C(NCc1cccc(-c2cncc3ccccc23)c1)Nc1ccc(Cl)c(C(F)(F)F)c1 [Example 263, N-[4-chloro-3-(trifluoromethyl)phenyl]-N′-[(3-isoquinolin-4-ylphenyl)methyl]urea]
0.05 to 0.5 µM	O=C(Nc1cc(C(F)(F)F)ccn1)OCc1cccc(-n2cnnn2)n1 [Example 265, [6-(1H-tetrazol-1-yl)pyridin-2-yl]methyl [4-(trifluoromethyl)pyridin-2-yl]carbamate]
